Laboratory results as given in patent US20230340011A1 (Asteroid Therapeutics, priority 2022, published 2023).
pEC50, pIC50: −log10 of the molar value. Where two headings read alike, the source gives them in different places.

Legend:
SREBP-2 = SREBP-2 (Homo sapiens (Human), UniProt Q12772); assay: In vitro assay SREBP-2: PathHunter U2OS SREBP-2 Nuclear Translocation Cell Line, U18666A-stimulated; assay type: cell-based
LXRβ = LXRβ (Homo sapiens (Human), UniProt P55055); assay: In vitro assay LXRβ: PathHunter NHR CHO cells, LXRβ / Steroid Receptor Co-activator Peptide enzyme fragment complementation; assay type: cell-based; details: PathHunter NHR CHO cells, full-length human LXRβ and SRCP, chemiluminescent signal; read-out: LXRβ PPI
Summary of the method: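 Co-activator recruitment measured by chemiluminescence after signal generation. The CHO line carries full-length human LXRβ tagged with ProLink and an SRCP–enzyme acceptor fusion in the nucleus; cells sat overnight at 37° C before testing, in charcoal-dextran filtered serum medium with 1% final vehicle.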

[1] = PathHunter U2OS SREBP-2 nuclear translocation cells, U18666A 10 μM, overnight (16 hours)

Sequence of LXRβ (P55055 whole entry, the tested form may be a part): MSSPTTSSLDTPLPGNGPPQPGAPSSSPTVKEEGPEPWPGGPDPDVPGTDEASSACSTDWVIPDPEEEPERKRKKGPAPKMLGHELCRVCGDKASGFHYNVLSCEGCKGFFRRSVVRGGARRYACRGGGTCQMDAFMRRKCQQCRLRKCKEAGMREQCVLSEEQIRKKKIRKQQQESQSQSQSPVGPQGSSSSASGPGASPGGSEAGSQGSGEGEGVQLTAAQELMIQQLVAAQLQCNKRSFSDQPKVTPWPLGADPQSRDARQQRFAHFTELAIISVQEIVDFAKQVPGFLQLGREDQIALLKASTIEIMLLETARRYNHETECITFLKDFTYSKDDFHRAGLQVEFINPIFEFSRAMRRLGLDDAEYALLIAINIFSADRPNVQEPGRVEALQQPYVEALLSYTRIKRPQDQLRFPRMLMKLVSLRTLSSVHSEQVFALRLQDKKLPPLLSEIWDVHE

SMILES	pIC50 (SREBP-2; [1])	pEC50 (LXRβ)	pIC50 (SREBP-2)
Cc1cnc(CC[C@@H](C)[C@H]2CC[C@H]3[C@@H]4CC=C5C[C@@H](O)CC[C@]5(C)[C@H]4CC[C@]23C)nc1 [Example 192, (3S,8S,9S,10R,13R,14S,17R)-10,13-dimethyl-17-((R)-4-(5-methylpyrimidin-2-yl)butan-2-yl)-2,3,4,7,8,9,10,11,12,13,14,15,16,17-tetradecahydro-1H-cyclopenta[a]phenanthren-3-ol]	> 6.60	< 5.00	
C[C@H](CCC(=O)N1CCC(O)(C2CC2)CC1)[C@H]1CC[C@H]2[C@@H]3CC=C4C[C@@H](O)CC[C@]4(C)[C@H]3CC[C@]12C [Example 193, (R)-1-(4-cyclopropyl-4-hydroxypiperidin-1-yl)-4-((3S,8S,9S,10R,13R,14S,17R)-3-hydroxy-10,13-dimethyl-2,3,4,7,8,9,10,11,12,13,14,15,16,17-tetradecahydro-1H-cyclopenta[a]phenanthren-17-yl)pentan-1-one]	> 6.60	> 6.60	
C[C@H](CCC(=O)N1CC=C(C2CC2)CC1)[C@H]1CC[C@H]2[C@@H]3CC=C4C[C@@H](O)CC[C@]4(C)[C@H]3CC[C@]12C [Example 193A, (R)-1-(4-cyclopropyl-3,6-dihydropyridin-1(2H)-yl)-4-((3S,8S,9S,10R,13R,14S,17R)-3-hydroxy-10,13-dimethyl-2,3,4,7,8,9,10,11,12,13,14,15,16,17-tetradecahydro-1H-cyclopenta[a]phenanthren-17-yl)pentan-1-one]	> 6.60	6.00 to 6.60	
CCCN(CCC)C(=O)C(=O)O[C@@H](C)[C@H]1CC[C@H]2[C@@H]3CC=C4C[C@@H](O)CC[C@]4(C)[C@H]3CC[C@]12C [Example 196, (S)-1-((3S,8S,9S,10R,13S,14S,17S)-3-hydroxy-10,13-dimethyl-2,3,4,7,8,9,10,11,12,13,14,15,16,17-tetradecahydro-1H-cyclopenta[a]phenanthren-17-yl)ethyl 2-(dipropylamino)-2-oxoacetate]	> 6.60	5.00 to 6.00	
CCN(C(=O)C(=O)O[C@@H](C)[C@H]1CC[C@H]2[C@@H]3CC=C4C[C@@H](O)CC[C@]4(C)[C@H]3CC[C@]12C)C(C)C [Example 197, (S)-1-((3S,8S,9S,10R,13S,14S,17S)-3-hydroxy-10,13-dimethyl-2,3,4,7,8,9,10,11,12,13,14,15,16,17-tetradecahydro-1H-cyclopenta[a]phenanthren-17-yl)ethyl 2-(ethyl(isopropyl)amino)-2-oxoacetate]	> 6.60	6.00 to 6.60	
C[C@H](OC(=O)C(=O)N1CCCC1)[C@H]1CC[C@H]2[C@@H]3CC=C4C[C@@H](O)CC[C@]4(C)[C@H]3CC[C@]12C [Example 198, (S)-1-((3S,8S,9S,10R,13S,14S,17S)-3-hydroxy-10,13-dimethyl-2,3,4,7,8,9,10,11,12,13,14,15,16,17-tetradecahydro-1H-cyclopenta[a]phenanthren-17-yl)ethyl 2-oxo-2-(pyrrolidin-1-yl)acetate]	> 6.60	5.00 to 6.00	
C[C@H](OC(=O)C(=O)N1CCCCC1)[C@H]1CC[C@H]2[C@@H]3CC=C4C[C@@H](O)CC[C@]4(C)[C@H]3CC[C@]12C [Example 199, (1S)-1-[(1S,3aS,3bS,7S,9aR,9bS,11aS)-7-hydroxy-9a,11a-dimethyl-1H,2H,3H,3aH,3bH,4H,6H,7H,8H,9H,9aH,9bH,10H,11H,11aH-cyclopenta[a]phenanthren-1-yl]ethyl2-oxo-2-(piperidin-1-yl)acetate]	> 6.60	6.00 to 6.60	
CCC1(O)CCN(C(=O)C(=O)O[C@@H](C)[C@H]2CC[C@H]3[C@@H]4CC=C5C[C@@H](O)CC[C@]5(C)[C@H]4CC[C@]23C)CC1 [Example 200, (S)-1-((3S,8S,9S,10R,13S,14S,17S)-3-hydroxy-10,13-dimethyl-2,3,4,7,8,9,10,11,12,13,14,15,16,17-tetradecahydro-1H-cyclopenta[a]phenanthren-17-yl)ethyl 2-(4-ethyl-4-hydroxypiperidin-1-yl)-2-oxoacetate]	> 6.60	5.00 to 6.00	
CC[C@@]1(OC)CCCN(C(=O)CC[C@@H](C)[C@H]2CC[C@H]3[C@@H]4CC=C5C[C@@H](O)CC[C@]5(C)[C@H]4CC[C@]23C)C1 [Example 201, (R)-1-((R)-3-ethyl-3-methoxypiperidin-1-yl)-4-((3S,8S,9S,10R,13R,14S,17R)-3-hydroxy-10,13-dimethyl-2,3,4,7,8,9,10,11,12,13,14,15,16,17-tetradecahydro-1H-cyclopenta[a]phenanthren-17-yl)pentan-1-one]	> 6.60	5.00 to 6.00	
COc1nccc(N2CCN(C(=O)CC[C@@H](C)[C@H]3CC[C@H]4[C@@H]5CC=C6C[C@@H](O)CC[C@]6(C)[C@H]5CC[C@]34C)CC2)n1 [Example 202, (R)-4-((3S,8S,9S,10R,13R,14S,17R)-3-hydroxy-10,13-dimethyl-2,3,4,7,8,9,10,11,12,13,14,15,16,17-tetradecahydro-1H-cyclopenta[a]phenanthren-17-yl)-1-(4-(2-methoxypyrimidin-4-yl)piperazin-1-yl) pentan-1-one]	> 6.60	< 5.00	
COc1cc(N2CCN(C(=O)CC[C@@H](C)[C@H]3CC[C@H]4[C@@H]5CC=C6C[C@@H](O)CC[C@]6(C)[C@H]5CC[C@]34C)CC2)ncn1 [Example 203, (4R)-4-[(1R,3aS,3bS,7S,9aR,9bS,11aR)-7-hydroxy-9a,11a-dimethyl-1H,2H,3H,3aH,3bH,4H,6H,7H,8H,9H,9aH,9bH,10H,11H,11aH-cyclopenta[a]phenanthren-1-yl]-1-[4-(6-methoxypyrimidin-4-yl)piperazin-1-yl]pentan-1-one]	> 6.60	< 5.00	
COc1cncnc1N1CCN(C(=O)CC[C@@H](C)[C@H]2CC[C@H]3[C@@H]4CC=C5C[C@@H](O)CC[C@]5(C)[C@H]4CC[C@]23C)CC1 [Example 204, (4R)-4-[(1R,3aS,3bS,7S,9aR,9bS,11aR)-7-hydroxy-9a,11a-dimethyl-1H,2H,3H,3aH,3bH,4H,6H,7H,8H,9H,9aH,9bH,10H,11H,11aH-cyclopenta[a]phenanthren-1-yl]-1-[4-(5-methoxypyrimidin-4-yl)piperazin-1-yl]pentan-1-one]	> 6.60	< 5.00	
Cc1nccc(N2CCN(C(=O)CC[C@@H](C)[C@H]3CC[C@H]4[C@@H]5CC=C6C[C@@H](O)CC[C@]6(C)[C@H]5CC[C@]34C)CC2)n1 [Example 205, (R)-4-((3S,8S,9S,10R,13R,14S,17R)-3-hydroxy-10,13-dimethyl-2,3,4,7,8,9,10,11,12,13,14,15,16,17-tetradecahydro-1H-cyclopenta[a]phenanthren-17-yl)-1-(4-(2-methylpyrimidin-4-yl)piperazin-1-yl)pentan-1-one]	> 6.60	< 5.00	
Cc1cc(N2CCN(C(=O)CC[C@@H](C)[C@H]3CC[C@H]4[C@@H]5CC=C6C[C@@H](O)CC[C@]6(C)[C@H]5CC[C@]34C)CC2)ncn1 [Example 206, (4R)-4-[(1R,3aS,3bS,7S,9aR,9bS,11aR)-7-hydroxy-9a,11a-dimethyl-1H,2H,3H,3aH,3bH,4H,6H,7H,8H,9H,9aH,9bH,10H,11H,11aH-cyclopenta[a]phenanthren-1-yl]-1-[4-(6-methylpyrimidin-4-yl)piperazin-1-yl]pentan-1-one]	> 6.60	< 5.00	
C[C@H](CCC(=O)N1CCN(C(=O)N2CCCC2)CC1)[C@H]1CC[C@H]2[C@@H]3CC=C4C[C@@H](O)CC[C@]4(C)[C@H]3CC[C@]12C [Example 207, (R)-4-((3S,8S,9S,10R,13R,14S,17R)-3-hydroxy-10,13-dimethyl-2,3,4,7,8,9,10,11,12,13,14,15,16,17-tetradecahydro-1H-cyclopenta[a]phenanthren-17-yl)-1-(4-(pyrrolidine-1-carbonyl)piperazin-1-yl) pentan-1-one]	> 6.60	< 5.00	
C[C@H](CCC(=O)N1CCN(C(=O)N2CCC2)CC1)[C@H]1CC[C@H]2[C@@H]3CC=C4C[C@@H](O)CC[C@]4(C)[C@H]3CC[C@]12C [Example 208, (R)-1-(4-(azetidine-1-carbonyl)piperazin-1-yl)-4-((3S,8S,9S,10R,13R,14S,17R)-3-hydroxy-10,13-dimethyl-2,3,4,7,8,9,10,11,12,13,14,15,16,17-tetradecahydro-1H-cyclopenta[a]phenanthren-17-yl)pentan-1-one]	> 6.60	< 5.00	
COCCN(C)C(=O)N1CCN(C(=O)CC[C@@H](C)[C@H]2CC[C@H]3[C@@H]4CC=C5C[C@@H](O)CC[C@]5(C)[C@H]4CC[C@]23C)CC1 [Example 209, 4-((R)-4-((3S,8S,9S,10R,13R,14S,17R)-3-hydroxy-10,13-dimethyl-2,3,4,7,8,9,10,11,12,13,14,15,16,17-tetradecahydro-1H-cyclopenta[a]phenanthren-17-yl)pentanoyl)-N-(2-methoxyethyl)-N-methylpiperazine-1-carboxamide]		< 5.00	> 6.60
C[C@H](CCC(=O)N1CCN(C(=O)N(C)CC2CC2)CC1)[C@H]1CC[C@H]2[C@@H]3CC=C4C[C@@H](O)CC[C@]4(C)[C@H]3CC[C@]12C [Example 210, N-(cyclopropylmethyl)-4-((R)-4-((3S,8S,9S,10R,13R,14S,17R)-3-hydroxy-10,13-dimethyl-2,3,4,7,8,9,10,11,12,13,14,15,16,17-tetradecahydro-1H-cyclopenta[a]phenanthren-17-yl)pentanoyl)-N-methylpiperazine-1-carboxamide]	> 6.60	< 5.00	
